For 23 molecules, IC50 results are on record in US8541584B2, “3-(1,2,3-triazol-4-yl) pyrrolo [2,3-b] pyridine derivatives” (Merck Patent GmbH, priority 2009, dated 2013).

One experiment concerns the target T1, PDK1 (Homo sapiens, UniProt O15530).
T1 construct: His6 (N)
T1 sequence (O15530 51-556 limits assumed): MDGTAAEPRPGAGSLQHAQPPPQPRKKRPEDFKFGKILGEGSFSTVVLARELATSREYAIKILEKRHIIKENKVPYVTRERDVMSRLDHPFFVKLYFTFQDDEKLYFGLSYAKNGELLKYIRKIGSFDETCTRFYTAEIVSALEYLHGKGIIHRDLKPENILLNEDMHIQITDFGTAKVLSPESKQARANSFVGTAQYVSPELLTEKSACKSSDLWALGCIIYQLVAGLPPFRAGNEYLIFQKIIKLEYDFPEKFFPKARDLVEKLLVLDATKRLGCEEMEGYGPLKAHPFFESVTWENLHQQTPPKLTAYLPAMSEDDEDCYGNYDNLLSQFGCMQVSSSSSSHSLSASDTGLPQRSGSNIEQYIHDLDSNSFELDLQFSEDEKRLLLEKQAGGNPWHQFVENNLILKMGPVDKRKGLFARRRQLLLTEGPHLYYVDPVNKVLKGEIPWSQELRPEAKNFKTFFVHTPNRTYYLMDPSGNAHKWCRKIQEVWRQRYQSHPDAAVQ
The experiment can be described thus: Test for the inhibition of PDK1 (384-well flashplate, 33P-ATP). The experiment is classed as biochemical. Conditions: His6-PDK1 3.4 nM, 4 μM ATP, 30° C., 60 min. The protocol:
4.0 Test for the Inhibition of PDK1
The experimental batches are carried out in a flashplate system with 384 wells/microtitration plate.
In each case, the PDK1 sample His6-PDK1(1-50)(3.4 nM), the PDK1 substrate biotin-bA-bA-[…] (400 nM), 4 μM ATP (with 0.2 μCi of ^33P-ATP/well) and the test substance in 50 μl of conventional experimental solution per well are incubated at 30° C. for 60 min. The test substances are employed in corresponding concentrations (if desired in a dilution series). The control is carried out without test substance. The reaction is stopped using standard methods and washed. The activity of the kinase is measured via the incorporated radioactivity in top count. In order to determine the non-specific kinase reaction (blank value), the experimental batches are carried out in the presence of 100 nM staurosporin.
The radioactivity (decompositions per minute) of the blank value (no use of test substance in the presence of staurosporin) is subtracted from all other radioactivity values. The controls (kinase activity without test substance) are set equal to 100 percent and all other radioactivity values (after subtracting the blank value) are expressed set in relation thereto (for example in % of the control).
IC50 values (50% inhibition) are determined with the aid of statistics programmes, such as, for example, RS1.

Experiment [1] relates to PDK1 kinase activity (P-T308-PKB) in PC3 cells. The experiment can be described thus: Cellular testing of PDK1 kinase inhibitors (Luminex assay, P-T308-PKB in PC3 cells). It is filed as cell-based. The note with it: Homo sapiens, PC-3, 0.5 h, serum-free, 30 min with test substance. As for the experimental part: Description of the Method for Cellular Testing of PDK1 Kinase Inhibitors
The cellular assay for determination of the PDK1 kinase activity is performed as Luminex assay in the 96-well format. PC3 cells are sown at 20,000 cells per well in 100 μl of medium (45% of […]/45% of Ham's F12/10% of FCS) and incubated under serum-free conditions on the following day for 30 min with serial dilution of the test substance (7 concentrations). The cells are subsequently lysed using 90 μl of lysis buffer (20 mM Tris/HCl pH 8.0, 150 mM NaCl, 1% of NP40, 10% of glycerol, 1% of phosphatase inhibitor I, 1% of phosphatase inhibitor II, 0.1% of protease inhibitor Cocktail III, 0.01% of benzonase) per well, and the lysates are separated off from insoluble cell constituents by means of centrifugation through a 96-well filter plate (0.65 μm). The lysates are incubated overnight at 4° C. with shaking with Luminex beads to which an anti-total PKB antibody has been coupled. Detection is carried out on the following day by addition of a P-T308-PKB antibody and a species-specific PE-labelled secondary antibody. The determination of P-T308-PKB is carried out by measurement in the Luminex100 instrument by determination of 100 events per cavity in a measurement time of 60 sec. As pharmacological blank, the signals obtained from cells which have been treated with 10 μM staurosporin are subtracted from all other batches. The control value used for maximum phosphorylation of PKB on T308 are the signals from cells which have been treated only with the solvent (0.3% of DMSO). The values of the batches treated with test substance are calculated from this as percent of control, and IC50 values are determined by means of RS1.

A word on the IC50: it is the concentration that gives 50% inhibition. A high value points to weaker potency in that assay. The molecule `c1ccc(Cn2cc(-c3c[nH]c4ncccc34)nn2)cc1` [Compound A1, 3-(1-benzyl-1H-1,2,3-triazol-4-yl)-1H-pyrrolo[2,3-b]pyridine] returned an IC50 on PDK1 of 0.5 to 1000 nM. Turning to `Clc1ccc(Cn2cc(-c3c[nH]c4ncccc34)nn2)cc1` [Compound A2, 3-[1-(4-chlorobenzyl)-1H-1,2,3-triazol-4-yl]-1H-pyrrolo[2,3-b]-pyridine], at PDK1, the concentration for half-maximal inhibition (IC50) was 1000 to 10000 nM. On PDK1, `Cc1[nH]c2ncccc2c1-c1cn(Cc2ccccc2)nn1` [Compound A3, 3-(1-Benzyl-1H-1,2,3-triazol-4-yl)-2-methyl-1H-pyrrolo[2,3-b]pyridine] yielded an IC50 of 0.5 to 1000 nM. For `Cn1cc(-c2cnc3[nH]cc(-c4cn(Cc5cccc(F)c5)nn4)c3c2)cn1` [Compound A5, 3-[1-(3-Fluorobenzyl)-1H-1,2,3-triazol-4-yl]-5-(1-methyl-1H-pyrazol-4-yl)-1H-pyrrolo-[2,3-b]pyridine], the IC50 on PDK1 was 0.5 to 1000 nM; in experiment [1], 1000 to 10000 nM.

Turning to `Cn1cc(-c2cnc3[nH]cc(-c4cn(Cc5ccc(F)cc5)nn4)c3c2)cn1` [Compound A6, 3-[1-(4-Fluorobenzyl)-1H-1,2,3-triazol-4-yl]-5-(1-methyl-1H-pyrazol-4-yl)-1H-pyrrolo-[2,3-b]pyridine], the IC50 at PDK1 lay in the range of 0.5 to 1000 nM; in experiment [1], 1000 to 10000 nM. Turning to `CC(c1ccccc1)n1cc(-c2c[nH]c3ncc(-c4cnn(C)c4)cc23)nn1` (stereo not drawn) [Compound A8, 5-(1-methyl-1H-pyrazol-4-yl)-3-[1-(1-phenylethyl)-1H-1,2,3-triazol-4-yl]-1H-pyrrolo[2,3-b]pyridine], the IC50 is 0.5 to 1000 nM against PDK1 and 1000 to 10000 nM in experiment [1].

Turning to `COc1ccnc2[nH]cc(-c3cn(Cc4ccccc4)nn3)c12` [Compound A15, 3-(1-benzyl-1H-1,2,3-triazol-4-yl)-4-methoxy-1H-pyrrolo[2,3-b]-pyridine], the 50% inhibitory concentration (IC50) against PDK1 was in the range of 0.5 to 1000 nM. In the case of `CC(c1cccc(C(F)(F)F)c1)n1cc(-c2c[nH]c3ncc(-c4cnn(C)c4)cc23)nn1` (stereo not drawn) [Compound A19, 5-(1-Methyl-1H-pyrazol-4-yl)-3-{1-[1-(3-trifluoromethylphenyl)ethyl]-1H-1,2,3-triazol-4-yl}-1H-pyrrolo[2,3-b]pyridine], the results for the half-maximal inhibitory concentration (IC50) (against PDK1; in experiment [1]) were 0.5 to 1000 nM and 1000 to 10000 nM, respectively. In the case of `Cn1cc(-c2cnc3[nH]cc(-c4cn(Cc5ccc(F)cc5F)nn4)c3c2)cn1` [Compound A21, 3-[1-(2,4-Difluorobenzyl)-1H-1,2,3-triazol-4-yl]-5-(1-methyl-1H-pyrazol-4-yl)-1H-pyrrolo-[2,3-b]pyridine], the concentration for half-maximal inhibition (IC50) on PDK1 is 0.5 to 1000 nM; in experiment [1] it was 1000 to 10000 nM. As to `Cn1cc(-c2cnc3[nH]cc(-c4cn(Cc5cccc(C(F)(F)F)c5F)nn4)c3c2)cn1` [Compound A22, 3-[1-(2-Fluoro-3-trifluoromethylbenzyl)-1H-1,2,3-triazol-4-yl]-5-(1-methyl-1H-pyrazol-4-yl)-1H-pyrrolo[2,3-b]pyridine], the results for the IC50 (at PDK1; in experiment [1]) were 0.5 to 1000 nM and 1000 to 10000 nM, respectively.

In the case of `Cn1cc(-c2cnc3[nH]cc(-c4cn(Cc5cccc(Cl)c5F)nn4)c3c2)cn1` [Compound A23, 3-[1-(3-Chloro-2-fluorobenzyl)-1H-1,2,3-triazol-4-yl]-5-(1-methyl-1H-pyrazol-4-yl)-1H-pyrrolo[2,3-b]pyridine], the concentration for half-maximal inhibition (IC50) (against PDK1; in experiment [1]) was 0.5 to 1000 nM in each case. In the case of `Cn1cc(-c2cnc3[nH]cc(-c4cn(Cc5c(F)cccc5C(F)(F)F)nn4)c3c2)cn1` [Compound A24, 3-[1-(2-Fluoro-6-trifluoromethylbenzyl)-1H-1,2,3-triazol-4-yl]-5-(1-methyl-1H-pyrazol-4-yl)-1H-pyrrolo[2,3-b]pyridine], the IC50 against PDK1 lay within 0.5 to 1000 nM; in experiment [1] it was 1000 to 10000 nM. Taken in the same sequence, the figures for `Cn1cc(-c2cnc3[nH]cc(-c4cn(Cc5ccc(C(F)(F)F)cc5F)nn4)c3c2)cn1` [Compound A26, 3-[1-(2-Fluoro-4-trifluoromethylbenzyl)-1H-1,2,3-triazol-4-yl]-5-(1-methyl-1H-pyrazol-4-yl)-1H-pyrrolo[2,3-b]pyridine] were 0.5 to 1000 nM and 1000 to 10000 nM. With `CC(c1ccc(C(=O)O)cc1)n1cc(-c2c[nH]c3ncc(-c4cnn(C)c4)cc23)nn1` (stereo not drawn) [Compound A27, 4-(1-{4-[5-(1-Methyl-1H-pyrazol-4-yl)-1H-pyrrolo[2,3-b]pyridin-3-yl]-1,2,3-triazol-1-yl}-ethyl)benzoic acid], the half-maximal inhibitory concentration (IC50) against PDK1 was in the range of 0.5 to 1000 nM. On PDK1, `Cn1cc(-c2cnc3[nH]cc(-c4cn(C(CC(=O)O)c5ccccc5)nn4)c3c2)cn1` (stereo not drawn) [Compound A28, 3-{4-[5-(1-Methyl-1H-pyrazol-4-yl)-1H-pyrrolo[2,3-b]pyridin-3-yl]-1,2,3-triazol-1-yl}-3-phenylpropionic acid] displayed an IC50 of 0.5 to 1000 nM. For `CC(c1ccc(CO)cc1)n1cc(-c2c[nH]c3ncc(-c4cnn(C)c4)cc23)nn1` (stereo not drawn) [Compound A30, [4-(1-{4-[5-(1-Methyl-1H-pyrazol-4-yl)-1H-pyrrolo[2,3-b]pyridin-3-yl]-1,2,3-triazol-1-yl}-ethyl)phenyl]methanol], the IC50 on PDK1 lay in the range of 0.5 to 1000 nM; in experiment [1], 1000 to 10000 nM.

In the case of `Cn1cc(-c2cnc3[nH]cc(-c4cn(Cc5ccncc5F)nn4)c3c2)cn1` [Compound A32, 3-[1-(3-Fluoropyridin-4-ylmethyl)-1H-1,2,3-triazol-4-yl]-5-(1-methyl-1H-pyrazol-4-yl)-1H-pyrrolo[2,3-b]pyridine], in experiment [1], the concentration for half-maximal inhibition (IC50) lay within 1000 to 10000 nM. In experiment [1], `COc1cccc(Cn2cc(-c3c[nH]c4ncc(-c5cnn(C)c5)cc34)nn2)c1` [Compound A34, 3-[1-(3-Methoxybenzyl)-1H-1,2,3-triazol-4-yl]-5-(1-methyl-1H-pyrazol-4-yl)-1H-pyrrolo-[2,3-b]pyridine] displayed a half-inhibitory concentration (IC50) of 1000 to 10000 nM. Take `Cn1cc(-c2cnc3[nH]cc(-c4cn(Cc5ccccc5CO)nn4)c3c2)cn1` [Compound A35, (2-{4-[5-(1-Methyl-1H-pyrazol-4-yl)-1H-pyrrolo[2,3-b]pyridin-3-yl]-1,2,3-triazol-1-ylmethyl}phenyl)methanol]: in experiment [1], the 50% inhibitory concentration (IC50) lay within 1000 to 10000 nM.

In experiment [1], `Cn1cc(-c2cnc3[nH]cc(-c4cn(Cc5ccc(OC(F)F)cc5)nn4)c3c2)cn1` [Compound A36, 3-[1-(4-Difluoromethoxybenzyl)-1H-1,2,3-triazol-4-yl]-5-(1-methyl-1H-pyrazol-4-yl)-1H-pyrrolo[2,3-b]pyridine] had a half-maximal inhibitory concentration (IC50) of 1000 to 10000 nM. As to `COC(=O)c1cccc(Cn2cc(-c3c[nH]c4ncc(-c5cnn(C)c5)cc34)nn2)c1` [Compound A37, Methyl 3-{4-[5-(1-methyl-1H-pyrazol-4-yl)-1H-pyrrolo[2,3-b]pyridin-3-yl]-1,2,3-triazol-1-ylmethyl}benzoate], in experiment [1], the 50% inhibitory concentration (IC50) was in the range of 1000 to 10000 nM. On to `Cn1cc(-c2cnc3[nH]cc(-c4cn(Cc5ccccc5C#N)nn4)c3c2)cn1` [Compound A38, 2-{4-[5-(1-Methyl-1H-pyrazol-4-yl)-1H-pyrrolo[2,3-b]pyridin-3-yl]-1,2,3-triazol-1-yl-methyl}benzonitrile], for which the half-maximal inhibitory concentration (IC50) in experiment [1] lay within 0.5 to 1000 nM. On the same count and under the same terms, the result for `Cn1cc(-c2cnc3[nH]cc(-c4cn(Cc5cccc(OC(F)F)c5)nn4)c3c2)cn1` [Compound A39, 3-[1-(3-Difluoromethoxybenzyl)-1H-1,2,3-triazol-4-yl]-5-(1-methyl-1H-pyrazol-4-yl)-1H-pyrrolo[2,3-b]pyridine] reads 1000 to 10000 nM.
